Results from patent US8067423B2, “Polymorphs of dasatinib isopropyl alcohol and process for preparation thereof” (Teva Pharmaceutical Industries Ltd., priority 2007, dated 2011).

What was measured:
Format in all cases: physicochemical
[1] = Slurry of form N-6 in methanol: conversion to form B, solid phase analyzed by PXRD; conditions: for content of form B in the recovered solid (PXRD): form N-6 75 mg slurried in 1 ml methanol, filtered, dried on air
Method: (§1) XRD diffraction was performed on X-Ray powder diffractometer: Philips X'pert Pro powder diffractometer, CuKα radiation, λ=1.5418 Å. X'Celerator detector active length (2 theta)=2.122°, laboratory temperature 22-25° C. Zero background sample holders. Prior to analysis the samples were gently ground by means of mortar and pestle in order to obtain a fine powder. The ground sample was adjusted into a cavity of the sample holder and the surface of the sample was smoothed by means of a cover glass.
Dasatinib (form N-6, 75 mg) was put into vial and 1 ml of methanol was added. The slurry was then left at 0° C. for 2 days. The solid phase was filtered off and left to dry on air.
Dasatinib (form N-6, 75 mg) was put into vial and 1 ml of methanol was added. The slurry was then left at 20° C. for 2 days respectively. The solid phase was filtered off and left to dry on air.

[2] = Blend with excipients pressed to a tablet, analyzed by PXRD; conditions: 70 mg form A3 with lactose monohydrate, magnesium stearate, microcrystalline celulose, hydroxypropylmethyl celulose
Method: as §1

[3] = Heating of form A3 on oil bath up to 208° C., MS check; conditions: 200 mg heated gradually up to 208° C. at final 0.7 Pa for about 15 min
Method: Dasatinib (200 mg, form A3) was heated on oil bath gradually up to 208° C. at final 0.7 Pa for about 15 min.

## Cc1nc(Nc2ncc(C(=O)Nc3c(C)cccc3Cl)s2)cc(N2CCN(CCO)CC2)n1 [form B, dasatinib]
[1]; at a temperature of about 20° C. and below
  stability of the crystalline form: relatively stable

## Cc1nc(Nc2ncc(C(=O)Nc3c(C)cccc3Cl)s2)cc(N2CCN(CCO)CC2)n1 [form N-6, dasatinib]
[1]; left at 0° C. for 2 days
  content of form B in the recovered solid (PXRD): about 10%
[1]; left at 20° C. for 2 days
  content of form B in the recovered solid (PXRD): about 1%
[1]; slurried at about 20° C. to about 0° C. for 2 days
  polymorphic conversion on slurrying: converted to form B

## Cc1nc(Nc2ncc(C(=O)Nc3c(C)cccc3Cl)s2)cc(N2CCN(CCO)CC2)n1 [form A3, dasatinib]
[2]
  crystalline form found in the pressed tablet (PXRD): belonging to form A3
[3]
  chemical change on heating (MS): without any chemical change
  sublimation on heating: None sublimation was observed
